# Data taken from patent publication US6599705B2, “Regulation of fungal gene expression” (priority 1997, dated 2003).
# Experiments:
# S. cerevisiae = assay: dig assay (nonfilamentous agar invasion) on YPD gradient plates; assay type: cell-based; conditions: YPD agar with fluconazole gradient, two days, washed with water (FIG. 12)
# Excerpt: Another example of a screen is based on the observation that yeast from haploid S. cerevisiae invade agar when grown on rich (YPD) medium without forming pseudohyphae. This nonfilamentous invasion behavior has been termed “digging,” and the assay used to detect this behavior has been termed the “dig assay.” Roberts and Fink, supra. […] Mutant strains defective for digging are referred to as “dig minus,” or “dig−.” The correlation of pseudohyphal invasion and behavior in the dig assay is an essential aspect of this screen. The dig assay is comparatively easy to perform relative to pseudohyphal invasion assays, and, as it occurs in haploid cells, is more amenable to genetic approaches that rely upon recessive mutations.
# An example of the dig assay is given below. To test whether a chemical compound would affect the nonfilamentous agar invasion behavior of nonmutant S. cerevisiae or C. albicans at concentrations much lower than the lowest growth inhibitory concentration, these fungi were spotted onto agar plates containing rich medium (YPD) and a gradient of the antifungal fluconazole. The plates were then incubated for two days at optimum growth temperatures and washed with water. […] This assay can be performed on other dimorphic fungi, such as U. maydis, as well as on other fungi. […]
# C. albicans = assay: as above; assay type: cell-based; conditions: YPD agar with fluconazole gradient, two days, washed with water (FIG. 12)
# Excerpt: We have discovered that pathogenic fungi can display similar digging behavior, characterized by increased invasion into or adherence to a defined substrate. […] This behavior is similar to the reported digging behavior of S. cerevisiae. As is true for S. cerevisiae, non-hyphal agar invasion by any given C. albicans mutant strain correlates with the ability of that strain to form filaments under filament-inducing conditions (e.g., agar+serum). Thus, screening for compounds that block the digging phenotype in fungi will allow for identification of compounds that block filament formation and, as a result, pathogenesis. These compounds are considered useful as fungicides or fungistats. Similarly, screening for compounds that increase substrate invasion will allow for identification of compounds which may also increase production or yield of secondary metabolites.
# An example of the dig assay is given below. To test whether a chemical compound would affect the nonfilamentous agar invasion behavior of nonmutant S. cerevisiae or C. albicans at concentrations much lower than the lowest growth inhibitory concentration, these fungi were spotted onto agar plates containing rich medium (YPD) and a gradient of the antifungal fluconazole. The plates were then incubated for two days at optimum growth temperatures and washed with water. […]
compound,measurement,setting,value
OC(Cn1cncn1)(Cn1cncn1)c1ccc(F)cc1F [fluconazole],inhibition of agar invasion relative to growth inhibition,S. cerevisiae,inhibition of agar invasion at significantly lower concentrations of fluconazole than those necessary to inhibit growth
same,inhibition of agar invasion relative to growth inhibition,C. albicans,inhibition of agar invasion at significantly lower concentrations of fluconazole than those necessary to inhibit growth
